The record followed here is PubChem BioAssay AID624129 (Sanford-Burnham Center for Chemical Genomics, 2012).

In general, IC50 refers to the concentration that gives 50% inhibition. A low value points to greater potency. The term inhibition denotes the drop in the measured response relative to a control, in per cent.

The structures appear in SMILES notation. Active and inactive are the calls of the source. The rule behind the calls is not given here.

The experiment has as its target C-X-C chemokine receptor type 6 (Homo sapiens) (UniProt O00574). Kind of experiment: potency against CXCR6 with APJ panel – cell-based, beta-arrestin, DiscoveRx, uHTS hits, dose response (AID 624129). Conditions: CXCR6 beta-arrestin (DiscoveRx) antagonist cell assay; for outcome: CXCR6, dose range 1; for inhibition: CXCR6, run 2, dose range 1, at 79 µM (top of the series).

Setting [1] is: CXCR6, dose range 1, mean IC50 across replicates.

Sequence of C-X-C chemokine receptor type 6 (Homo sapiens) (O00574 whole entry, looked up): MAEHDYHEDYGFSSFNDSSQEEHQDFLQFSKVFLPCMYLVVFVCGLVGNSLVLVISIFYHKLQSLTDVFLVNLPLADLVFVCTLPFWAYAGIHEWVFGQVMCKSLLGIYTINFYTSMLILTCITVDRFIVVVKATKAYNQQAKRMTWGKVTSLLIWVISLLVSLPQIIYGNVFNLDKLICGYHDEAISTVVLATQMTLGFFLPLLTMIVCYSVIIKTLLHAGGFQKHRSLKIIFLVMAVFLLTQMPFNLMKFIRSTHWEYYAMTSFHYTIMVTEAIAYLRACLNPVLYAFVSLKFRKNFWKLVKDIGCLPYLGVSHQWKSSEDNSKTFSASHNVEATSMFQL

Consider `O=C(NC(=S)Nc1ccccc1O)c1cncc(Br)c1`, for which the outcome was inactive and the inhibition was 70.2%. Besides, under setting [1], the IC50 worked out at 28.4 µM. Moreover, the IC50 (CXCR6, run 1, dose range 2) came out at 24.7 µM. This compound had an IC50 (CXCR6, run 2, dose range 2) of 32 µM.
As for `CC1=C(CO)C(=O)OC([C@@H](C)C2CC[C@H]3C4C[C@H]5O[C@]56[C@@H](O)C=CC(=O)[C@]6(C)C4CC[C@]23C)C1` (stereo not given in full), the outcome was inactive and the inhibition was found to be 112%. Besides, the IC50 under setting [1] was found to be 14 µM. The compound also displayed an IC50 (CXCR6, run 1, dose range 2) of 12.2 µM. The half-inhibitory concentration (IC50) (CXCR6, run 2, dose range 2) is 15.8 µM.
In the case of `CCCC/C=C1/CCC(CN(C)C)C1=O` (stereo not given), the outcome was inactive and the inhibition stood at 110%. Further, the IC50 under setting [1] worked out at 22.6 µM. The compound further registered an IC50 (CXCR6, run 1, dose range 2) of 22.3 µM. Where the note is “CXCR6, run 2, dose range 2”, this compound showed an IC50 of 22.8 µM.
In the same order, the values of `NC(=O)c1ccccc1NCC(=O)c1ccc(Cl)cc1` are “active”, 36.4%, 5.58 µM, 5.58 µM and greater than 79 µM.
In the same order, the values of `COC(=O)CSc1[nH]c2ccc(Br)cc2c1[N+](=O)[O-]` are “inactive”, 23.1%, 42.2 µM, 42.2 µM and greater than 79 µM.
For `CC(=O)NS(=O)(=O)c1ccc(Nc2ccc([N+](=O)[O-])c3nonc23)cc1`, the outcome was inactive and the inhibition was determined as 85.9%. Under setting [1], this compound had an IC50 of 46.6 µM. Further, the concentration for half-maximal inhibition (IC50) (CXCR6, run 1, dose range 2) is 35.6 µM. Under “CXCR6, run 2, dose range 2”, this compound displayed a half-inhibitory concentration (IC50) of 57.6 µM.
As to `COc1cc(/C=C/C(=O)c2ccc(C)c([N+](=O)[O-])c2)cc(OC)c1O`, the outcome was inactive and the inhibition came out at 75.1%. Under setting [1], this compound showed an IC50 of 19.4 µM. The same compound had an IC50 (CXCR6, run 1, dose range 2) of 16.4 µM. The same compound registered a concentration for half-maximal inhibition (IC50) (CXCR6, run 2, dose range 2) of 22.5 µM.
In the same order, the values of `CC1=C(C)CC2C(C1)C(=O)c1ccc(Br)cc1S2(=O)=O` (stereo not given) are “inactive”, 50.8%, 30.5 µM, 37.3 µM and 23.7 µM.
In the same order, the values of `O=C(C#Cc1cccc([N+](=O)[O-])c1)c1ccccc1` are “inactive”, 108%, 13.5 µM, 12.6 µM and 14.4 µM.
Turning to `Oc1ccc(Cl)c2cccnc12`, the outcome was active and the inhibition stood at 17.7%. In addition, under setting [1], the concentration for half-maximal inhibition (IC50) is 4.82 µM. The IC50 (CXCR6, run 1, dose range 2) worked out at 4.82 µM. The compound further showed an IC50 (CXCR6, run 2, dose range 2) greater than 79 µM.
Take `O=[N+]([O-])c1cc2no[n+]([O-])c2cc1N1CCCCC1`: the result was inactive and the inhibition stood at 112%. This compound also registered an IC50 under setting [1] of 12 µM. Besides, the IC50 (CXCR6, run 1, dose range 2) came out at 12.2 µM. The compound further gave an IC50 (CXCR6, run 2, dose range 2) of 11.9 µM.
In the same order, the values of `C/C(=N\Nc1nc2ccccc2[nH]1)c1ccccn1` are “active”, -12.1%, 3.33 µM, 3.33 µM and greater than 79 µM.
In the same order, the values of `O=C(COc1ccc(Br)cc1Cl)NC(=S)N1CCc2ccccc21` are “inactive”, 94.9%, 17.3 µM, 14.8 µM and 19.7 µM.
As for `O=C(Nc1ccc(F)cc1)c1nc(S(=O)(=O)Cc2ccccc2)ncc1Cl`, the result was inactive and the inhibition was 112%. Under setting [1], this compound displayed an IC50 of 12.9 µM. Also, the concentration for half-maximal inhibition (IC50) (CXCR6, run 1, dose range 2) worked out at 12.5 µM. Also, the IC50 (CXCR6, run 2, dose range 2) is 13.4 µM.
On to `O=C1c2cccc3c([N+](=O)[O-])ccc(c23)C(=O)N1Cc1cccnc1`, for which the result was inactive and the inhibition is 110%. For the same compound, the IC50 under setting [1] worked out at 27.8 µM. The compound further had an IC50 (CXCR6, run 1, dose range 2) of 25 µM. Further, the IC50 (CXCR6, run 2, dose range 2) is 30.5 µM.
In the same order, the values of `Cc1cc(C)nc(S/C=C/C(=O)c2ccccc2)n1` are “inactive”, 107%, 25.1 µM, 22.6 µM and 27.5 µM.
As for `O=C(Nc1ccc(Oc2ccccc2)cc1)c1csc([C@@H]2O[C@H](CO)[C@H](O)[C@H](O)[C@H]2O)n1`, the outcome was inactive and the inhibition came out at 57.4%. The compound also yielded a half-maximal inhibitory concentration (IC50) under setting [1] of 40.1 µM. The half-inhibitory concentration (IC50) (CXCR6, run 1, dose range 2) turned out to be 40.1 µM. This compound also displayed a half-inhibitory concentration (IC50) (CXCR6, run 2, dose range 2) greater than 79 µM.
For `O=C(NC(=S)N1CCN(c2ccc(C(F)(F)F)cc2[N+](=O)[O-])CC1)c1cccs1`, the result was inactive and the inhibition worked out at 85.8%. In addition, under setting [1], the IC50 came out at 12.9 µM. This compound had an IC50 (CXCR6, run 1, dose range 2) of 10.4 µM. Moreover, the IC50 (CXCR6, run 2, dose range 2) came out at 15.4 µM.
